Experimental data reported in ChEMBL document CHEMBL3994585, “Synthesis of α-santonin derivatives for diminutive effect on T and B-cell proliferation and their structure activity relationships” (Eur J Med Chem, 2017).

What was measured:
B-cell [1] = experiment: Immunostimulant activity in Balb/c mouse B cells assessed as LPS-induced cell proliferation at 100 uM after 48 hrs by MTT assay relative to control; assay type: ADME, cell-based
B-cell [2] = experiment: Immunostimulant activity in Balb/c mouse B cells assessed as LPS-induced cell proliferation at 10 uM after 48 hrs by MTT assay relative to control; assay type: ADME, cell-based
B-cell [3] = experiment: Cytotoxicity against Balb/c mouse B cells assessed as reduction in cell proliferation at 100 uM after 48 hrs by MTT assay; assay type: cell-based
T-cell [4] = experiment: Cytotoxicity against Balb/c mouse T cells assessed as reduction in cell proliferation at 100 uM after 48 hrs by MTT assay; assay type: cell-based
B-cell [5] = experiment: Cytotoxicity against Balb/c mouse B cells assessed as reduction in cell proliferation at 10 uM after 48 hrs by MTT assay; assay type: cell-based
T-cell [6] = experiment: Cytotoxicity against Balb/c mouse T cells assessed as reduction in cell proliferation at 1 uM after 48 hrs by MTT assay; assay type: cell-based
T-cell [7] = experiment: Immunostimulant activity in Balb/c mouse T cells assessed as ConA-induced cell proliferation at 1 uM after 48 hrs by MTT assay relative to control; assay type: ADME, cell-based
T-cell [8] = experiment: Immunostimulant activity in Balb/c mouse T cells assessed as ConA-induced cell proliferation at 100 uM after 48 hrs by MTT assay relative to control; assay type: ADME, cell-based
B-cell [9] = experiment: Cytotoxicity against Balb/c mouse B cells assessed as reduction in cell proliferation at 1 uM after 48 hrs by MTT assay; assay type: cell-based
T-cell [10] = experiment: Cytotoxicity against Balb/c mouse T cells assessed as reduction in cell proliferation at 10 uM after 48 hrs by MTT assay; assay type: cell-based
T-cell [11] = experiment: Effect on ConA-induced Balb/c mouse T cell proliferation at 10 uM after 48 hrs by MTT assay relative to control; assay type: functional
B-cell [12] = experiment: Immunosuppressive activity in Balb/c mouse B cells assessed as LPS-induced cell proliferation at 1 uM after 48 hrs by MTT assay relative to control; assay type: functional
[13] = target: Tumor necrosis factor (Homo sapiens) (UniProt P01375); experiment: Inhibition of TNFalpha (unknown origin) at 10 uM relative to control
B-cell [14] = experiment: Immunosuppressive activity in Balb/c mouse B cells assessed as LPS-induced cell proliferation at 10 uM after 48 hrs by MTT assay relative to control; assay type: functional
[15] = target: Tumor necrosis factor (Homo sapiens) (UniProt P01375); experiment: Inhibition of TNFalpha (unknown origin) at 1 uM relative to control
T-cell [16] = experiment: Immunosuppressive activity in Balb/c mouse T cells assessed as ConA-induced cell proliferation at 100 uM after 48 hrs by MTT assay relative to control; assay type: functional
T-cell [17] = experiment: Immunosuppressive activity in Balb/c mouse T cells assessed as ConA-induced cell proliferation at 1 uM after 48 hrs by MTT assay relative to control; assay type: functional
B-cell [18] = experiment: Immunosuppressive activity in Balb/c mouse B cells assessed as LPS-induced cell proliferation at 100 uM after 48 hrs by MTT assay relative to control; assay type: functional
[19] = target: Tumor necrosis factor (Homo sapiens) (UniProt P01375); experiment: Inhibition of TNFalpha (unknown origin) at 10 uM relative to dexamethasone
T-cell [20] = experiment: Immunosuppressive activity in Balb/c mouse T cells assessed as ConA-induced cell proliferation at 10 uM after 48 hrs by MTT assay relative to control; assay type: functional
[21] = target: Tumor necrosis factor (Homo sapiens) (UniProt P01375); experiment: Inhibition of TNFalpha (unknown origin) at 5 uM relative to control
B-cell [22] = experiment: Immunostimulant activity in Balb/c mouse B cells assessed as LPS-induced cell proliferation at 1 uM after 48 hrs by MTT assay relative to control; assay type: ADME, cell-based
T-cell [23] = experiment: Immunostimulant activity in Balb/c mouse T cells assessed as ConA-induced cell proliferation at 10 uM after 48 hrs by MTT assay relative to control; assay type: ADME, cell-based
B-cell [24] = experiment: Effect on LPS-induced Balb/c mouse B cell proliferation at 100 uM after 48 hrs by MTT assay relative to control; assay type: functional

Sequence of Tumor necrosis factor (Homo sapiens) (P01375 whole entry): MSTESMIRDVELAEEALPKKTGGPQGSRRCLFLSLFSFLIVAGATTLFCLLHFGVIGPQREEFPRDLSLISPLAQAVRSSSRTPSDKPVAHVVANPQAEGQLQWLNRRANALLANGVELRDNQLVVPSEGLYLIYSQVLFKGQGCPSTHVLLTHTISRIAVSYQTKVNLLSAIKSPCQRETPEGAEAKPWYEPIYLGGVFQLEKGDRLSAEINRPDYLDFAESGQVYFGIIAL

SMILES | Activity (B-cell [1]) | Activity (B-cell [2]) | Activity (B-cell [3]) | Activity (T-cell [4]) | Activity (B-cell [5]) | Activity (T-cell [6]) | Activity (T-cell [7]) | Activity (T-cell [8]) | Activity (B-cell [9]) | Activity (T-cell [10]) | Activity (B-cell [12]) | Activity (B-cell [14]) | inhibition [15] | Activity (T-cell [16]) | Activity (T-cell [17]) | Activity (B-cell [18]) | Activity (T-cell [20]) | Activity (B-cell [22]) | Activity (T-cell [23]) | further results
CCOC(=O)[C@H](C)C1=Cc2c(C)c(O)cc(C)c2CC1 | 14.15% | 23% | Toxic | Toxic | Toxic | Toxic | 11.34% | 22.68% | Toxic | Toxic | -1.76% |  |  |  |  |  |  |  |  | Activity (T-cell [11]): 0%
CC(=O)Oc1cc(C)c2c(c1C)C1OC(OC(C)=O)C(C)C1CC2 (centres undefined) |  |  | Toxic | Toxic | Toxic | Toxic |  |  | Toxic | Toxic | -50% | -28.02% | 0.34% | -43.38% | -38.23% | -45.05% | -26.47% |  |  | inhibition [13]: 26%; inhibition [19]: 50%; inhibition [21]: 9.9%
CC(=O)OC1=C(C)C2=C3OC(=O)C(C)=C3CC[C@@]2(C)CC1 |  |  | Toxic | Toxic | Toxic | Toxic |  |  | Toxic | Toxic | -42.3% | -42.3% | 3.03% | -34.55% | -30.88% | -45.6% | -38.23% |  |  | inhibition [13]: 44.9%; inhibition [21]: 24.1%
Cc1cc(OCc2cnnn2/C=C/c2ccccc2)c(C)c2c1CC[C@H]1[C@H](C)C(=O)O[C@@H]21 | 48.71% |  |  |  |  |  |  |  |  |  |  | -7.69% |  | -95.12% | -95.12% |  | -95.12% | 36.75% |  | 
COc1cc(C)c2ccc([C@@H](C)C(=O)O)cc2c1C | 4.76% | 13.33% | Non-Toxic | Non-Toxic | Toxic | Toxic | 9.52% | 13.07% | Toxic | Toxic |  |  |  |  |  |  | -25% | 86.66% |  | 
CC(=O)OCC(C)C1CCc2c(C)cc(OC(C)=O)c(C)c2C1O (centres undefined) | 5.3% | 1.76% | Non-Toxic | Non-Toxic | Toxic | Toxic | 37.11% | 18.55% | Toxic | Toxic |  |  |  |  |  |  |  | 2.65% | 17.52% | 
C[C@@H]1C[C@H]2[C@@H]3CCC4=CC(=O)C=C[C@]4(C)[C@@]3(F)[C@@H](O)C[C@]2(C)[C@@]1(O)C(=O)CO |  |  |  |  |  |  |  |  |  |  |  |  | 49.9% |  |  |  |  |  |  | 
Cc1cc(O)c(C)c2c1CCC(C(C)CO)C2O (centres undefined) |  | 8.54% | Toxic | Toxic | Toxic | Toxic | 31.18% | 6.45% | Toxic | Toxic |  |  |  |  |  | -11.96% |  | 14.52% | 26.34% | 
CC1=C2[C@H]3OC(=O)[C@@H](C)[C@@H]3CC[C@@]2(C)C=CC1=O [SANTONIN] |  |  | Non-Toxic | Non-Toxic | Non-Toxic | Non-Toxic |  |  | Non-Toxic | Non-Toxic |  | -24.17% | Below limit of detection | -5.16% | -36.02% | -33.62% |  | 20.35% | 4.48% | inhibition [13]: 19%; inhibition [21]: 6.2%
Cc1c(O)c([N+](=O)[O-])c(C)c2c1[C@@H]1OC(=O)[C@@H](C)[C@@H]1CC2 |  |  | Toxic | Toxic | Toxic | Toxic | 13.4% | 36.08% | Toxic | Toxic | -10.61% | -30.08% |  |  |  |  | -1.03% |  |  | Activity (B-cell [24]): 0%
COC(=O)[C@H](C)C1=Cc2c(C)c(OC)cc(C)c2CC1 | 14.15% | 23% | Toxic | Toxic | Toxic | Toxic | 11.34% | 22.68% | Toxic | Toxic | -1.76% |  |  |  |  |  |  |  |  | Activity (T-cell [11]): 0%
Cc1cc(O)c(C)c2c1CC[C@@H]([C@@H](C)C(=O)O)C2 | 20.35% |  | Toxic | Toxic | Toxic | Toxic | 4.12% | 1.03% | Toxic | Toxic |  | -1.76% |  |  |  |  |  | 15.92% | 3.09% | 
Cc1cc(O)c(C)c2c1CC[C@@H]([C@@H](C)C(=O)Nc1ccc(CC#N)cc1)C2 |  |  | Toxic | Toxic | Toxic | Toxic |  |  | Toxic | Toxic | -42.3% | -39.56% | Below limit of detection | -7.35% | -36.02% | -46.7% | -30.14% |  |  | inhibition [13]: 17.1%; inhibition [21]: 4.5%
Cc1cc(O)c(C)c2c1CCC1C2OC(O)C1C (centres undefined) |  | 9.73% | Toxic | Toxic | Toxic | Toxic | 31.95% | 16.49% | Toxic | Toxic |  |  |  |  |  | -12.38% |  | 13.27% | 16.49% | 
